US8372592B2, “High resolution label free analysis of cellular properties” (X-Body, Inc., priority 2008, dated 2013)

Target: VCAM-1 and VLA-4 binding (J6 cells, which express VLA-4) (Homo sapiens, UniProt P05556+P13612)
Details: J6 cells + 1 mM Mn2+; EDTA added at the 110 minute mark; FIG. 4
Description: VCAM-1 can be fused or bound to a ZZ-binding domain from Protein A. The ZZ-binding domain will specifically bind to IgG immobilized on the surface of the biosensor. Cells that express VLA-4 will bind to the VCAM-1 adhesion protein, which is bound to IgG immobilized to the surface of the biosensor. Therefore cells expressing an adhesion protein ligand will be immobilized to the biosensor surface.
VCAM-1, which was fused to the ZZ-binding domain of Protein A, was added to a biosensor having IgG immobilized to its surface. J6 cells, which express VLA-4, were added to the biosensor surface. […] The “J6 cells+1 mM Mn^2+” and “Buffer” lines shown in FIG. 4 both contained J6 cells and 1 mM Mn^2+. The “J6 cells and EDTA” line contained J6 cells and EDTA. At the 110 minute mark, EDTA was added to the “J6 cells+1 mM Mn^2+” cells.

Sequence of VCAM-1 and VLA-4 binding (J6 cells, which express VLA-4) (P13612 34-1032): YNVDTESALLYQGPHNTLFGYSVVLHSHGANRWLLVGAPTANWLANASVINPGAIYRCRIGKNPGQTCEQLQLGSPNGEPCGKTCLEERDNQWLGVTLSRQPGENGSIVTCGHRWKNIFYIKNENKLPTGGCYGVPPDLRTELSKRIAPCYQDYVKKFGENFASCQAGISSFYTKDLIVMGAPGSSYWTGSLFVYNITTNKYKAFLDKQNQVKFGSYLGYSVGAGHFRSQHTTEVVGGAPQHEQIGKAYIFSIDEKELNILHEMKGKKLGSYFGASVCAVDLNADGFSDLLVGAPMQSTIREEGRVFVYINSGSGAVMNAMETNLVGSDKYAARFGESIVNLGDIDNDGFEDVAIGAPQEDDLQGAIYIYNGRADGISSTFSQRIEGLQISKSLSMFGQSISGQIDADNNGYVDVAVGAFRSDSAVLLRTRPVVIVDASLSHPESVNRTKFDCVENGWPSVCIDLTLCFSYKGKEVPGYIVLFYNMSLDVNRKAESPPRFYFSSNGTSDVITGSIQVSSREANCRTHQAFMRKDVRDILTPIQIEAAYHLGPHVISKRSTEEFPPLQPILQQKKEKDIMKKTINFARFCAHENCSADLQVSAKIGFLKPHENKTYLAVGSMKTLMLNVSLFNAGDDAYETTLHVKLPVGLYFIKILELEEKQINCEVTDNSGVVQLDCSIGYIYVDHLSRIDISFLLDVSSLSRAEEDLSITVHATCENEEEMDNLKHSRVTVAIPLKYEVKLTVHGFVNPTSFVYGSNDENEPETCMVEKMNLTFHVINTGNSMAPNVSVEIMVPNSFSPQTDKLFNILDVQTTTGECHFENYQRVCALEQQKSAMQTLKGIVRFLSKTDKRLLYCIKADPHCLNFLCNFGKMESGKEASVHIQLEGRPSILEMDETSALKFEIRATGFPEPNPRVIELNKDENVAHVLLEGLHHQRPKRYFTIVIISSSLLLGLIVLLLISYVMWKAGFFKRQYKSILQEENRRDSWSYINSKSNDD
Sequence of VCAM-1 and VLA-4 binding (J6 cells, which express VLA-4) (P05556 21-798): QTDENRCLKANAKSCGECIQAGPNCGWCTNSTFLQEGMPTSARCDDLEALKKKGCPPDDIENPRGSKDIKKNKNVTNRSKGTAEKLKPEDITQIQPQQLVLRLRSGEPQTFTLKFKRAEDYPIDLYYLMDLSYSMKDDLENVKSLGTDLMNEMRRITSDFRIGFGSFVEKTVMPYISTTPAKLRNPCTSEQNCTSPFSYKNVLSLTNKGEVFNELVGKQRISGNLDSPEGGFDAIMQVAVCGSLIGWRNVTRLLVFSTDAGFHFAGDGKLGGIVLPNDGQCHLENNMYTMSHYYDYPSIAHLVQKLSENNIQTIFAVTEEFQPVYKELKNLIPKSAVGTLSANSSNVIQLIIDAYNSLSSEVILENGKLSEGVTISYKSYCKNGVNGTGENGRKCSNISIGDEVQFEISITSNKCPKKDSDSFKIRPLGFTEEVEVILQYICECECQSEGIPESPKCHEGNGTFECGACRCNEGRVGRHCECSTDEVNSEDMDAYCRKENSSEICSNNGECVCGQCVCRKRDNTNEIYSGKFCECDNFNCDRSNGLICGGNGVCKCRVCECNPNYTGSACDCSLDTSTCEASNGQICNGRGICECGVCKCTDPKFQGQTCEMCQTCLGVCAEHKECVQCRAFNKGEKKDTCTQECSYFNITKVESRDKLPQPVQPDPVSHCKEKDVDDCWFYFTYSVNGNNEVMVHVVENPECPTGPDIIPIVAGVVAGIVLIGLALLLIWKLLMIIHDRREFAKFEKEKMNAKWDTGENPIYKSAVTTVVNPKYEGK

SMILES: O=C(O)CN(CCN(CC(=O)O)CC(=O)O)CC(=O)O [EDTA]
- amount of binding of cells to the VCAM-1 immobilized to the surface of the biosensor: quickly dropped off
